Values joined by “and” are separate entries in the source; they are usually repeats but may differ in a detail not shown here. Identical values can stand only once.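 The compound was tested at five concentrations on cells cultured in 96-well plates, with a 48-hour exposure period. GI50 marks 50% less growth. TGI is the concentration that stops growth completely.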
Test system: MDA-MB-468 breast
Assay: NCI tumour cell line growth inhibition, 48 h

Row | SMILES | GI50 | TGI
1 | O=C(NCC1CC1)c1ccc(-c2cccc(C(=O)NC3CC3)c2)cc1 | > 25 µM | > 25 µM
2 | CCCN1C(=O)NC(=O)C(CC)(N2C(=O)c3c(F)c(F)c(F)c(F)c3C2=O)C1=O (centres undefined) | 1.54 µM | 3.93 µM
3 | Cc1c2cnccc2c(C)c2c1c1cc(C#N)ccc1n2C | 0.228 µM | 0.741 µM
4 | O=C1/C(=C/c2ccc([N+](=O)[O-])cc2)CN(C(=O)CCN2CCC(=NO)CC2)C/C1=C\c1ccc([N+](=O)[O-])cc1 | 1.06 µM | 3.61 µM
5 | Cc1ccc2cnc(N)c(C#Cc3cc(C(=O)Nc4ccc(CN5CCN(C)CC5)c(C(F)(F)F)c4)cnc3C)c2c1 | 0.932 µM | 2.08 µM
6 | CN1CCC(CNc2cc(C3(C(=O)Nc4cc(C(=O)Nc5ccc(Cl)c(C(F)(F)F)c5)ccc4F)CC3)ncn2)CC1 | 1.83 µM | 4.41 µM
7 | Nc1ncn([C@@H]2S[C@H](CO)[C@@H](O)[C@@H]2F)c(=O)n1 | > 100 µM | > 100 µM
8 | COc1cc(C)ccc1C(=O)c1ccc(C)cc1OC | 1.39 µM | > 100 µM
9 | Nc1nc2ccc(-c3nc4ccc5[nH]ncc5c4c4c3CCC4)cc2s1 | 0.182 µM | 4.36 µM
10 | Cn1ncc(-c2ccc3c(=O)[nH]nc(CN)c3c2)c1-c1c(F)c(Cl)cc(OC2CC2)c1C#N | 11.7 µM and 10.2 µM | 24.8 µM and 22.5 µM
11 | CCOc1ccccc1CCN=C1NC(=O)/C(=C/c2ccc3ncccc3c2)S1 | 1.16 µM | > 16.9 µM
12 | O=C(Nc1cccc(Cl)c1)Nn1cnnc1 | > 50 µM | > 50 µM
13 | COc1cccc(-c2nc3cc(NC(=O)c4ccc(Cl)c(C#N)c4)ccc3o2)c1 | 1.6 µM | 3.44 µM
14 | CCN1C(=O)N(CC)C2C1NN=c1s/c(=C\c3ccc(Cl)cc3Cl)c(=O)n12 (centres undefined) | 0.0417 µM | 19.4 µM
15 | CCOC(=O)Oc1c(OC)cc(C(=O)c2ccc(OC)c(O)c2OC)cc1OC | 2.65 µM | > 100 µM
16 | CC1=C2C(=C[C@@](C)(CO)[C@@H]2OC(=O)N(C)CCN(C)C(=O)OC(C)(C)C)C(=O)[C@](C)(O)C12CC2 | 1.1 µM | 3.8 µM
17 | COc1ccc2c(c1)C(=O)/C(=C/c1cccc(OCC(=O)c3ccccc3)c1)CC2 | 2.68 µM | 74.2 µM
18 | O=C(O)c1nc(NCc2nc3cc(Cl)ccc3o2)n[nH]1 | > 100 µM | > 100 µM
19 | CCSC1=NC2C(N(CC)C(=O)N2CC)N1/N=C/C=C/c1ccccc1[N+](=O)[O-] (centres undefined) | 0.1 µM | 
20 | C=C1CCC2C3(C)COC(C)(C)OC3CCC2(C)C1C/C=C1/C(=O)OCC1OC(C)=O (centres undefined) | 1.44 µM | 3.06 µM
21 | CC(CO)Nc1cc(-c2[nH]c3cccnc3c2-c2ccc(F)cc2)ccn1 (centres undefined) | 6.74 µM | > 25 µM
22 | O=C1OCC2=C1C(c1cccc(F)c1)c1cc3c(cc1N2CCO)OCO3 (centres undefined) | 1.12 µM | > 50 µM
23 | COc1cc(/C=C/C(=O)/C=C/c2cc(OC)c3c(c2)OCO3)cc2c1OCO2 | 3.46 µM | 28.3 µM
24 | CCc1c2c(nc3ccc(OCc4ccc(B(O)O)cc4)cc13)-c1cc3c(c(=O)n1C2)COC(=O)[C@]3(O)CC | < 0.01 µM | 0.0355 µM
25 | CCCCN(CCCC)Cc1cc(Nc2ccnc3cc(Cl)ccc23)ccc1O | 4.94 µM | > 100 µM
